Results as given in patent publication EP4635500A1, “THERAPEUTIC AGENT FOR BACTERIAL INFECTION” (Sumitomo Pharma Co., Ltd., priority 2022, dated 2024).
Where two headings read alike, the source gives them in different places.

How the values were obtained:
Assay type in all cases: cell-based
Enterobacterales = assay: MIC, broth microdilution, CDC/FDA Antibiotic Resistance Isolate Bank (Example 7, Tables 8, 11, 12); conditions: for MIC50: carbapenemase-producing Enterobacterales, read-out: MIC50
[1] = tested on: Metallo-β-lactamase producing strains (N = 27); assay: MIC50/MIC90 for carbapenemase-producing isolates (Example 5, Table 6); conditions: metallo-β-lactamase-producing strains; combination: Compound A at a fixed concentration of 4 µg/mL; read-out: MIC90
Klebsiella pneumoniae = assay: MIC, broth microdilution, standard strains and Japanese clinical isolates (Example 5, Table 4)
Enterobacter cloacae = assay: as above
Providencia rettgeri = assay: as above; conditions: ATCCBAA2525; KUB4010 Providencia rettgeri ATCC BAA-2525, OXA-181
53 CRE and CPE strains = assay: MICrange, MIC50, MIC80, MIC90 for 53 bacterial isolates (Example 5, Table 5)
CRE and CPE strains = assay: MIC, broth microdilution, standard strains and Japanese clinical isolates (Example 5, Table 4 continued; organism of each KUB strain not given)
Escherichia coli = assay: MIC, broth microdilution, standard strains and Japanese clinical isolates (Example 5, Table 4)

CC(C)(O/N=C(\C(=O)N[C@@H]1C(=O)N2C(C(=O)[O-])=C(C[N+]3(CCNC(=O)c4ccc(O)c(O)c4Cl)CCCC3)CS[C@H]12)c1csc(N)n1)C(=O)O [Cefiderocol, cefiderocol]
0.5 µg/mL: MIC (Enterobacterales; Klebsiella pneumoniae, KUB No. 5606, AR Bank # 109, read-out: MIC) | MIC (Enterobacterales; Klebsiella pneumoniae, KUB No. 5610, AR Bank # 113, read-out: MIC) | MIC (Enterobacterales; Klebsiella pneumoniae, KUB No. 5612, AR Bank # 115, read-out: MIC) | MIC (Enterobacterales; Klebsiella pneumoniae, KUB No. 5645, AR Bank # 148, read-out: MIC) | MIC (Enterobacterales; Klebsiella pneumoniae, KUB No. 5655, AR Bank # 158, read-out: MIC) | MIC (Enterobacterales; Klebsiella pneumoniae, Klebsiella pneumoniae KUB No. 5784, AR Bank #438, read-out: MIC) | MIC (Enterobacterales; Klebsiella pneumoniae, Klebsiella pneumoniae KUB No. 5810, AR Bank #505, read-out: MIC) | MIC (Enterobacterales; Klebsiella pneumoniae, Klebsiella pneumoniae KUB No. 5829, AR Bank #524, read-out: MIC) | MIC (Enterobacterales; Proteus mirabilis, KUB No. 5656, AR Bank # 159, read-out: MIC) | MIC (Enterobacterales; Serratia marcescens, Serratia marcescens KUB No. 5826, AR Bank #521, read-out: MIC) | MIC (Klebsiella pneumoniae; ATCCBAA2342, KUB4003 Klebsiella pneumoniae ATCC BAA-2342, KPC-3) | MIC (Enterobacter cloacae; ATCCBAA2341, KUB4002 Enterobacter cloacae ATCC BAA-2341, KPC-3) | MIC (Escherichia coli; ATCCBAA2452, KUB4005 Escherichia coli ATCC BAA-2452, NDM-1)
0.12 µg/mL: MIC (Enterobacterales; Klebsiella pneumoniae, KUB No. 5636, AR Bank # 139, read-out: MIC) | MIC (Enterobacterales; Klebsiella pneumoniae, KUB No. 5637, AR Bank # 140, read-out: MIC) | MIC (Enterobacterales; Serratia marcescens, KUB No. 5618, AR Bank # 121, read-out: MIC) | MIC (Enterobacterales; Serratia marcescens, KUB No. 5619, AR Bank # 122, read-out: MIC) | MIC (Enterobacterales; Serratia marcescens, KUB No. 5627, AR Bank # 130, read-out: MIC) | MIC (CRE and CPE strains; strain KUB3164, carbapenemase gene IMP-6)
2 µg/mL: MIC (Enterobacterales; Klebsiella pneumoniae, KUB No. 5609, AR Bank # 112, read-out: MIC) | MIC (Enterobacterales; Klebsiella pneumoniae, KUB No. 5614, AR Bank # 117, read-out: MIC) | MIC (Enterobacterales; Klebsiella pneumoniae, KUB No. 5760, AR Bank # 364, read-out: MIC) | MIC (Enterobacterales; Klebsiella pneumoniae, Klebsiella pneumoniae KUB No. 5811, AR Bank #506, read-out: MIC) | MIC (Enterobacterales; Klebsiella pneumoniae, Klebsiella pneumoniae KUB No. 5812, AR Bank #507, read-out: MIC) | MIC (Enterobacterales; Klebsiella pneumoniae, Klebsiella pneumoniae KUB No. 5827, AR Bank #522, read-out: MIC) | MIC (Enterobacterales; Klebsiella pneumoniae, Klebsiella pneumoniae KUB No. 5830, AR Bank #525, read-out: MIC) | MIC (Enterobacterales; Proteus mirabilis, KUB No. 5775, AR Bank # 379, read-out: MIC) | MIC (Enterobacterales; Serratia marcescens, Serratia marcescens KUB No. 5822, AR Bank #517, read-out: MIC) | MIC (Klebsiella pneumoniae; ATCCBAA1898, KUB3996 Klebsiella pneumoniae ATCC BAA-1898, KPC-2) | MIC (Klebsiella pneumoniae; ATCCBAA1899, KUB3997 Klebsiella pneumoniae ATCC BAA-1899, KPC-2) | MIC (Klebsiella pneumoniae; ATCCBAA2078, KUB4000 Klebsiella pneumoniae ATCC BAA-2078, KPC-3) | MIC (Klebsiella pneumoniae; ATCCBAA2146, KUB4011 Klebsiella pneumoniae ATCC BAA-2146, NDM-1) | MIC (Klebsiella pneumoniae; KUB3631 Klebsiella pneumoniae Clinical isolate, IMP-1) | MIC (Klebsiella pneumoniae; KUB3634 Klebsiella pneumoniae Clinical isolate, IMP-6) | MIC (Providencia rettgeri) | MIC80 (53 CRE and CPE strains; 53 bacterial isolates, read-out: MIC80) | MIC (CRE and CPE strains; strain KUB3149, carbapenemase gene NDM-1, read-out: MIC) | MIC (CRE and CPE strains; strain KUB3152, carbapenemase gene KPC-2, read-out: MIC)
≤0.0 µg/mL: MIC (Enterobacterales; Serratia marcescens, KUB No. 5621, AR Bank # 124)
50.1 µg/mL: MIC (Enterobacterales; Serratia marcescens, KUB No. 5628, AR Bank # 131, read-out: MIC)
≤0.06 to 8 µg/mL: MICrange (53 CRE and CPE strains; 53 bacterial isolates)
< 0.06 µg/mL: MIC (Enterobacterales; Klebsiella pneumoniae, KUB No. 5639, AR Bank # 142, read-out: MIC) | MIC (Enterobacterales; Proteus mirabilis, KUB No. 5653, AR Bank # 156, read-out: MIC) | MIC (Enterobacterales; Serratia marcescens, KUB No. 5620, AR Bank # 123, read-out: MIC)
4 µg/mL: MIC90 (53 CRE and CPE strains; 53 CRE and CPE strains, read-out: MIC90) | MIC90 (53 CRE and CPE strains; 53 bacterial isolates) | MIC (CRE and CPE strains; strain KUB3154, carbapenemase gene KPC-2, read-out: MIC) | MIC (Escherichia coli; ATCCBAA2471, KUB4007 Escherichia coli ATCC BAA-2471, NDM-6)
1 µg/mL: MIC (Enterobacterales; Klebsiella pneumoniae, KUB No. 5622, AR Bank # 125, read-out: MIC) | MIC (Enterobacterales; Klebsiella pneumoniae, KUB No. 5626, AR Bank # 129, read-out: MIC) | MIC (Enterobacterales; Klebsiella pneumoniae, KUB No. 5632, AR Bank # 135, read-out: MIC) | MIC (Enterobacterales; Klebsiella pneumoniae, KUB No. 5635, AR Bank # 138, read-out: MIC) | MIC (Enterobacterales; Klebsiella pneumoniae, KUB No. 5640, AR Bank # 143, read-out: MIC) | MIC (Enterobacterales; Klebsiella pneumoniae, KUB No. 5650, AR Bank # 153, read-out: MIC) | MIC (Enterobacterales; Klebsiella pneumoniae, KUB No. 5757, AR Bank # 361, read-out: MIC) | MIC (Enterobacterales; Klebsiella pneumoniae, KUB No. 5772, AR Bank # 376, read-out: MIC) | MIC (Enterobacterales; Klebsiella pneumoniae, Klebsiella pneumoniae KUB No. 5828, AR Bank #523, read-out: MIC) | MIC (Enterobacterales; Salmonella enterica, Salmonella Senftenberg, KUB No. 5624, AR Bank # 127, read-out: MIC) | MIC50 (Enterobacterales; Metallo-β-lactamase (N = 47)) | MIC (Klebsiella pneumoniae; ATCCBAA1904, KUB3999 Klebsiella pneumoniae ATCC BAA-1904, KPC-3) | MIC (Klebsiella pneumoniae; KUB3633 Klebsiella pneumoniae Clinical isolate, IMP-6) | MIC (Enterobacter cloacae; ATCCBAA2468, KUB4006 Enterobacter cloacae ATCC BAA-2468, NDM-1) | MIC (CRE and CPE strains; strain KUB3151, carbapenemase gene IMP-1, read-out: MIC)
≤ 0.06 µg/mL: MIC (Enterobacterales; Klebsiella pneumoniae, KUB No. 5604, AR Bank # 107, read-out: MIC) | MIC (Enterobacterales; Klebsiella pneumoniae, KUB No. 5623, AR Bank # 126, read-out: MIC) | MIC (Enterobacterales; Klebsiella pneumoniae, KUB No. 5638, AR Bank # 141, read-out: MIC) | MIC (Enterobacterales; Kluyvera ascorbata, KUB No. 5641, AR Bank # 144, read-out: MIC) | MIC (Enterobacterales; Morganella morganii, KUB No. 5630, AR Bank # 133, read-out: MIC) | MIC (Enterobacterales; Proteus mirabilis, KUB No. 5652, AR Bank # 155, read-out: MIC) | MIC (Enterobacterales; Proteus mirabilis, KUB No. 5773, AR Bank # 377, read-out: MIC) | MIC (Enterobacterales; Providencia rettgeri, KUB No. 5579, AR Bank # 82, read-out: MIC) | MIC (Enterobacterales; Serratia marcescens, KUB No. 5588, AR Bank # 91, read-out: MIC) | MIC (CRE and CPE strains; strain KUB3150, carbapenemase gene OXA-48, read-out: MIC)
8 µg/mL: MIC90 [1] | MIC (Klebsiella pneumoniae; ATCCBAA2472, KUB4008 Klebsiella pneumoniae subsp. Pneumoniae ATCC BAA-2472, NDM-1) | MIC (Klebsiella pneumoniae; ATCCBAA2473, KUB4009 Klebsiella pneumoniae ATCC BAA-2473, NDM-1) | MIC (CRE and CPE strains; strain KUB3157, carbapenemase gene NDM-1)
0.25 µg/mL: MIC (Enterobacterales; Klebsiella pneumoniae, KUB No. 5617, AR Bank # 120, read-out: MIC) | MIC (Enterobacterales; Klebsiella pneumoniae, KUB No. 5642, AR Bank # 145, read-out: MIC) | MIC (Enterobacterales; Klebsiella pneumoniae, KUB No. 5643, AR Bank # 146, read-out: MIC) | MIC (Enterobacterales; Klebsiella pneumoniae, KUB No. 5649, AR Bank # 152, read-out: MIC) | MIC (Enterobacterales; Klebsiella pneumoniae, KUB No. 5657, AR Bank # 160, read-out: MIC) | MIC (Enterobacterales; Klebsiella pneumoniae, KUB No. 5759, AR Bank # 363, read-out: MIC) | MIC (Enterobacterales; Klebsiella pneumoniae, Klebsiella pneumoniae KUB No. 5797, AR Bank #453, read-out: MIC) | MIC (Enterobacterales; Klebsiella pneumoniae, Klebsiella pneumoniae KUB No. 5809, AR Bank #504, read-out: MIC) | MIC (Enterobacterales; Proteus mirabilis, KUB No. 5556, AR Bank# 59, read-out: MIC) | MIC (Enterobacterales; Serratia marcescens, KUB No. 5596, AR Bank # 99, read-out: MIC) | MIC50 (Enterobacterales; Serine carbapenemase (N=61)) | MIC (Klebsiella pneumoniae; ATCCBAA1900, KUB3998 Klebsiella pneumoniae ATCC BAA-1900, KPC-3) | MIC (Klebsiella pneumoniae; ATCCBAA2343, KUB4004 Klebsiella pneumoniae ATCC BAA-2343, KPC-3)
